Assay results: publication PMC5650142, “GPR40 partial agonists and AgoPAMs: Differentiating effects on glucose and hormonal secretions in the rodent” (PLoS ONE, 2017)
Values joined by “and” are separate entries in the source; they are usually repeats but may differ in a detail not shown here. Identical values can stand only once. Like-named read-outs stand apart in the source and are kept apart here. Blank lines part the entries; values can stand above or below the compound they belong to.

Assays:
[1] = biological target: T1, mouse GPR40 (Mus musculus, UniProt Q76JU9); assay: Mouse GPR40 IP1 accumulation assay; format: cell-based; conditions: for Efficacy (% Activation), Mouse: maximal % activity vs in-house partial agonist control
T1 construct: expressed in transfected cells; host or cells: CHO-K1 (methods)
T1 sequence (Q76JU9 whole entry): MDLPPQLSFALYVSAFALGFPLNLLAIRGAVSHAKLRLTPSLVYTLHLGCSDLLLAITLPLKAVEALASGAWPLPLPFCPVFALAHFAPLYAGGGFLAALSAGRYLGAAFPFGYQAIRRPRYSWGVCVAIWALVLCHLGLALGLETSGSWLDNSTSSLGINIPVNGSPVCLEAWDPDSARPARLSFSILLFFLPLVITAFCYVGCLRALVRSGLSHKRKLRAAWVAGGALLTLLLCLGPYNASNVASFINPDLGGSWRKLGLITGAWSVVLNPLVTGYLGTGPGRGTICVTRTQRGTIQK
Protocol: (§1) Stable cell lines expressing human GPR40 (hGPR40/HEK293), mouse GPR40 (mGPR40/CHO-K1), and rat GPR40 (rGPR40/CHO-K1) were cultured in DMEM media supplemented with 10% FBS, glutamine, non-essential amino acids, and penicillin/streptomycin. hGPR40/HEK293 & mGPR40/CHO-K1 cell media was supplemented with […] G418 (Life Technologies), while rGPR40/CHO-K1 cells were grown in […] blasticidin plus […] hygromycin (Life Technologies). Cell stocks were maintained and grown in a sub-confluent state using standard cell culture procedures. The day before the experiment, the cells were harvested with non-enzymatic cell dissociation buffer and re-suspended in DMEM supplemented with 10% FBS, glutamine, non-essential amino acids, penicillin/streptomycin at 0.15, 0.2 and 0.3 million cells per ml for human, mouse, and rat GPR40, respectively. […] The seeded plates were incubated overnight at 37 C.
(§2) On the day of the experiment, the growth media was removed from the assay by gently patting the assay plates on an absorbent sheet and 10 μl of IP1 stimulation buffer (Cis Bio IP-one Tb HTRF kit) supplemented with 50 mM LiCl is added to each well. Test compounds dissolved in DMSO were serially diluted in ½ log increments starting from 2 mM or 0.2 mM and 50 nl of the compound dilution was acoustically added to each well (final starting concentration 10 μM or 1 μM). Plates were then incubated for 60 minutes at room temperature and 10 μl of detection buffer (prepared as described in the Tb kit) is added to each well. The plates are then incubated one additional hour at room temperature. […] For each assay, a standard curve plate in which IP1 is titrated is also included. […] The percent activity at each concentration of test compound is determined using 0% activation (basal activity) determined in those wells that contain DMSO alone, while 100% activity is determined in wells that contained a concentration of a partial allosteric agonist know to activate GPR40. The % activity is then plotted versus the concentration of test compound and the dose response curve fitted to a standard 4-parameter non-linear regression model using a custom in-house developed software package (Merck & Co., Inc., MRL, Kenilworth, NJ, USA). Maximal % activity and EC50 are then determined for each test compound.

[2] = biological target: T2, human GPR40 (Homo sapiens, UniProt O14842); assay: Human GPR40 IP1 accumulation assay; format: cell-based; set-up: expressed in transfected cells; conditions: for Efficacy (% Activation), Human: maximal % activity vs in-house partial agonist control
T2 sequence (O14842 whole entry): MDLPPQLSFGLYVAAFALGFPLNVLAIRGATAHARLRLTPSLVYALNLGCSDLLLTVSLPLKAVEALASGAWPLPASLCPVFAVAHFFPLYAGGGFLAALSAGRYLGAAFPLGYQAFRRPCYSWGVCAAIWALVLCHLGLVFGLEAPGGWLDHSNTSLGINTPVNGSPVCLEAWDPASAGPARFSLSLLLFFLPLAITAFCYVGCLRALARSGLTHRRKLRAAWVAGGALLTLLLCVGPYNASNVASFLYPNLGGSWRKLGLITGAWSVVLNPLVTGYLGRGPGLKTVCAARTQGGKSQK
Protocol: as §1, §2

[3] = biological target: T2, human GPR40; assay: GPR40 binding assay, partial agonist tracer [3H]L358; set-up: expressed in transfected cells; host or cells: CHO / CHO-K1 cells, membrane preparation; conditions: for % Bound Normalized to 100 / %Bound: radioligand L-001533358;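 on %Bound: 100% is tracer binding with DMSO alone and 0% is full displacement by a standard compound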
Protocol: Two small molecule tracers, the partial agonist [3H][…] and the AgoPAM [3H]25, are used to measure compound affinity at each site as described previously. Because of the allosteric coupling of the two sites and the nature of the assay, addition of a compound will either displace (binds to same site) or augment (binds to allosterically coupled site) radiotracer. Membranes expressing GPR40 were prepared from CHO cells stably expressing human GPR40. […] Sigma P8830) and were homogenized in 50 ml aliquots with a motor-driven glass Dounce homogenizer, 15 strokes at 1900 rpm on wet ice, repeating once. Homogenates were centrifuged at 2200 rpm for 10 min at 4°C. Supernatants were carefully removed and pooled. Homogenization and centrifugation were repeated until the debris pellet was translucent to maximize membrane recovery. Supernatants were then centrifuged at […] rpm for 20 min. at 4°C. […] Protein concentration was determined by Pierce BCA kit. […] The beads and membrane mixture is then vigorously mixed for 30 minutes at room temperature prior to addition to the assay. […] Next, 15 μl of the radioligand and 35 μl of the beads/membranes solution is added to each well. The assay plates are then sealed and incubated for 30 minutes at room temperature on an orbital shaker. The plates are allowed to settle for 16 hours and then counted on a TopCount scintillation counter (PE). […] Maximal % bound and IC50 are then determined for each test compound. 5 μg/well membrane together with 200 μg/well of PVT WGA SPA beads (GE #RPNG-0001) were suspended in a white 96 well plate with a final concentration of 50 μl/well in assay buffer (50 mM Tris, 10 mM MgCl2, and 2 mM EDTA). […] The plate is briefly mixed and incubated for 3-18 h at room temperature, before it is read on a MicroBeta plate counter (Perkin Elmer, MS, USA).

[4] = biological target: T3, rat GPR40 (Rattus norvegicus, UniProt Q8K3T4); assay: Rat GPR40 IP1 accumulation assay; format: cell-based; conditions: for Efficacy (% Activation), Rat: maximal % activity vs in-house partial agonist control
T3 construct: expressed in transfected cells; host or cells: CHO-K1 (methods)
T3 sequence (Q8K3T4 whole entry): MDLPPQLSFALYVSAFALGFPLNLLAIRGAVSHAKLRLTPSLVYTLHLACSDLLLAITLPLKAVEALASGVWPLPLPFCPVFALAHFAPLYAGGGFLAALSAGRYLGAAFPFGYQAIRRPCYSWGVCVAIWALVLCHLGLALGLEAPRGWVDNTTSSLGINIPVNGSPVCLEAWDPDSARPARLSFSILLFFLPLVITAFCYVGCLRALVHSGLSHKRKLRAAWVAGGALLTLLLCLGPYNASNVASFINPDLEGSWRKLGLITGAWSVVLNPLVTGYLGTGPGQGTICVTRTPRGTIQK
Protocol: as §1, §2

[5] = mean ± SD, n = 2–20, IP accumulation, read-out: Potency [EC50, nM] ± SD, Mouse
[6] = mean ± SD, n = 2–20, IP accumulation, read-out: Potency [EC50, nM] ± SD, Human
[7] = mean ± SD, n = 2–20, IP accumulation, read-out: Potency [EC50, nM] ± SD, Rat

Mouse GPR40 Receptor Activation (%) ([1]; dose 1.50E-11 M): -3.27%
Mouse GPR40 Receptor Activation (%) ([1]; dose 1.55E-08 M): 446%
Mouse GPR40 Receptor Activation (%) ([1]; dose 2.43E-10 M): 50%
Mouse GPR40 Receptor Activation (%) ([1]; dose 2.49E-07 M): 525%
Mouse GPR40 Receptor Activation (%) ([1]; dose 3.89E-09 M): 371%
Mouse GPR40 Receptor Activation (%) ([1]; dose 4.00E-12 M): -5%
Mouse GPR40 Receptor Activation (%) ([1]; dose 6.10E-11 M): 5%
Mouse GPR40 Receptor Activation (%) ([1]; dose 6.22E-08 M): 431%
Mouse GPR40 Receptor Activation (%) ([1]; dose 9.72E-10 M): 174%
EC50 ([1]; individual determinations, read-out: EC50 (nM), Mouse GPR40, Functional Assay): 0.64 nM and 0.73 nM and 1.06 nM and 1.33 nM and 1.52 nM and 2.22 nM and 2.5 nM and 0.46 nM and 0.58 nM and 0.59 nM
Efficacy (% Activation), Mouse [1]: (478%)
EC50 [1, 5]: 1.2 ± 0.72 nM
Human GPR40 Receptor Activation (%) ([2]; dose 1.50E-11 M): -1.6%
Human GPR40 Receptor Activation (%) ([2]; dose 1.55E-08 M): 280%
Human GPR40 Receptor Activation (%) ([2]; dose 2.43E-10 M): 54%
Human GPR40 Receptor Activation (%) ([2]; dose 2.49E-07 M): 306%
Human GPR40 Receptor Activation (%) ([2]; dose 3.89E-09 M): 288%
Human GPR40 Receptor Activation (%) ([2]; dose 4.00E-12 M): -5%
Human GPR40 Receptor Activation (%) ([2]; dose 6.10E-11 M): 7%
Human GPR40 Receptor Activation (%) ([2]; dose 6.22E-08 M): 328%
Human GPR40 Receptor Activation (%) ([2]; dose 9.72E-10 M): 183%
Human GPR40 Receptor Activation (%) ([2]; dose 9.95E-07 M): 328%
EC50 ([2]; individual determinations, read-out: EC50 (nM), HUMAN GPR40, Functional Assay): 0.32 nM and 0.43 nM and 0.46 nM and 0.47 nM and 0.73 nM and 0.8 nM and 0.91 nM and 0.19 nM and 0.24 nM and 0.27 nM
Efficacy (% Activation), Human [2]: (318%)
EC50 [2, 6]: 0.48 ± 0.25 nM
% Bound Normalized to 100 ([3]; dose 0.318285 nM): 82.24%
%Bound ([3]; dose 0.318285 nM): 88.22%
% Bound Normalized to 100 ([3]; dose 1.00578 nM): 93.26%
%Bound ([3]; dose 1.00578 nM): 99.24%
% Bound Normalized to 100 ([3]; dose 3.17827 nM): 115.15%
%Bound ([3]; dose 3.17827 nM): 121.13%
% Bound Normalized to 100 ([3]; dose 10.0433 nM): 125.44%
%Bound ([3]; dose 10.0433 nM): 131.41%
% Bound Normalized to 100 ([3]; dose 31.7369 nM): 126.76%
%Bound ([3]; dose 31.7369 nM): 132.74%
% Bound Normalized to 100 ([3]; dose 100.289 nM): 126.17%
%Bound ([3]; dose 100.289 nM): 132.15%
% Bound Normalized to 100 ([3]; dose 316.912 nM): 135.28%
%Bound ([3]; dose 316.912 nM): 141.26%
% Bound Normalized to 100 ([3]; dose 1001.44 nM): 137.19%
%Bound ([3]; dose 1001.44 nM): 143.17%
% Bound Normalized to 100 ([3]; dose 3164.56 nM): 164.81%
%Bound ([3]; dose 3164.56 nM): 170.79%
% Bound Normalized to 100 ([3]; dose 10000 nM): 174.51%
%Bound ([3]; dose 10000 nM): 180.49%
Rat GPR40 Receptor Activation (%) ([4]; dose 1.50E-11 M): -10%
Rat GPR40 Receptor Activation (%) ([4]; dose 1.55E-08 M): 330%
Rat GPR40 Receptor Activation (%) ([4]; dose 2.43E-10 M): 24%
Rat GPR40 Receptor Activation (%) ([4]; dose 2.49E-07 M): 412%
Rat GPR40 Receptor Activation (%) ([4]; dose 3.89E-09 M): 269%
Rat GPR40 Receptor Activation (%) ([4]; dose 4.00E-12 M): -6.43%
Rat GPR40 Receptor Activation (%) ([4]; dose 6.10E-11 M): -0.311%
Rat GPR40 Receptor Activation (%) ([4]; dose 6.22E-08 M): 389%
Rat GPR40 Receptor Activation (%) ([4]; dose 9.72E-10 M): 121%
Rat GPR40 Receptor Activation (%) ([4]; dose 9.95E-07 M): 389%
EC50 ([4]; individual determinations, read-out: EC50 (nM), Rat GPR40, Functional Assay): 0.79 nM and 0.8 nM and 0.9 nM and 1.01 nM and 1.46 nM and 1.5 nM and 2.03 nM and 2.24 nM and 2.29 nM and 0.57 nM and 0.7 nM and 0.75 nM
Efficacy (% Activation), Rat [4]: (405%)
EC50 [4, 7]: 1.3 ± 0.63 nM
Structure (SMILES): C[C@H](C(=O)O)[C@H](c1ccc2c(c1)O[C@H](C1CN(Cc3cc(C(F)(F)F)ccc3C(F)(F)F)C1)CC2)C1CC1 [AP3]
%Act, Mouse GPR40, Functional Assay ([1]; individual determinations): 596% and 682% and 213% and 314% and 487% and 456% and 680% and 434% and 501% and 418%
%Act, HUMAN GPR40, Functional Assay ([2]; individual determinations): 407% and 332% and 338% and 274% and 324% and 328% and 239% and 282% and 383% and 273%
%Act, Rat GPR40, Functional Assay ([4]; individual determinations): 265% and 529% and 336% and 568% and 267% and 374% and 399% and 444% and 459% and 365% and 466% and 382%

Efficacy (% Activation), Mouse [1]: (157%)
EC50 [1, 5]: 2.6 ± 0.8 nM
Efficacy (% Activation), Human [2]: (85%)
EC50 [2, 6]: 24 ± 13 nM
Binding Results, % in parentheses, [^3H]L-358 ([3]; WT human GPR40, maximal % (not defined)): (108%)
IC50 ([3]; WT human GPR40, n = 2–13, read-out: Binding Results [IC50, nM], [^3H]L-358): 17 ± 4.7 nM
binding of [^3H]L358 ([3]; human GPR40 membranes, competition binding): displace
Efficacy (% Activation), Rat [4]: (155%)
EC50 [4, 7]: 5.2 ± 2.5 nM
Structure (SMILES): O=C1NC(=O)C(C2CCOc3cc(Oc4ccc(C(F)(F)F)cc4Cl)ccc32)S1 (stereo not shown) [MK-2305, reference compound]
